“And” between values parts separate entries of the source, which are not always exact repeats. Equal entries are not always repeated.
Tests used:
Format in all cases: physicochemical
[1] = UV/vis spectroscopy of complexes 1-13; settings: for λmax (nm) / λmax (nm), (higher wavelength absorption peak, lowest energy transition): DMSO, 0.001 mmol concentration; for ε (mol^-1 dm^3 cm^-1): molar absorption coefficient of the higher wavelength absorption peak, Beer-Lambert law
Protocol: (§1) UV/Vis and fluorescence spectra were measured with a Perkin Elmer Lamda 19 spectrometer and a Hitachi F-4500 fluorescence spectrophotometer respectively.
(§2) The optical properties of a range of mono- and binuclear complexes derived from Zn[ATSM/A] (see the table below) were measured by electronic absorption (UV/vis) and fluorescence spectroscopy.
UV/vis spectroscopy: electronic absorption spectra were recorded in DMSO at 0.1, 0.01 and 0.001 mmol concentrations. Values of λmax were obtained from spectra of solutions at 0.001 mmol concentration, as this is sufficiently dilute to enable intermolecular interactions to be neglected.

[2] = Fluorescence of Zn[ATS(Me)/A-T-Amino-BTAP] and its precursors; settings: 475 nm, DMSO, 0.01 mM
Protocol: as §1
The fluorescence emission spectrum of Zn[ATS(Me)/A-T-Amino-BTAP] can be examined as two regions 400-500 nm, predominantly benzothiazole fluorescence and 490-790 nm, predominantly the zinc (BTSC) fluorescence.
FIGS. 3 and 4 show the fluorescence emission spectra (a) for Amino-BTAP, 4-Aldehydrophenylimino-BTAP and Zn[ATS(Me)/A-T-Amino-BTAP], (375 nm, D MSO, 0.01 mM); and (b) for Zn[ATS(Me)/A-T-Amino-BTAP], Zn[ATS(Me)/A] and Zn[ATS(Me)/A-T], (475 nm. DMSO, 0.01 mM).

[3] = Fluorescence spectroscopy of complexes 1-13; settings: for fluorescence emission λmax /nm / Relative intensity / Relative intensity (values in parentheses): excited at 475 nm; for fluorescence emission λmax /nm / Relative intensity: 0.01 mmol solutions in DMSO; for Relative intensity / Relative intensity (values in parentheses): relative to complex 3; for increase in fluorescence intensity relative to Zn[ATSM] and Zn[ATSM/A]: fluorescence emission; for fluorescence strength: 0.01 mmol concentrations in DMSO; for Relative intensity (values in parentheses): 0.1 mmol solutions
Protocol: as §1, §2
Fluorescence spectroscopy: the fluorescence of complexes 1-13 was measured at 0.1, 0.01 and 0.001 mmol concentrations by exciting at a range of wavelengths from 300 nm to 500 n. At 0.1 mmol and 0.01 mmol concentrations all of the complexes show emissions between 534 nm and 604 nm. […] Values of λmax and the intensity of the fluorescence emission relative to that of complex 3 when excited at 475 nm for complexes 1-13 are give in the following table.
All values relate to 0.01 mmol solutions in DMSO. (a) The values in parentheses refer to 0.1 mmol solutions.

[4] = UV/Vis absorption of Zn[BTSCs]; settings: for UV/Vis Absorption λmax(2): second UV/vis absorption; for UV/Vis Absorption λmax(3): third UV/vis absorption
Protocol: as §1
The co-ordination of BTSCs to zinc produces an extended delocalised system. Zn[ATSM] was the first of these complexes observed to be fluorescent (Emission: λmax=557 nm) and with UV/Vis absorptions at 308 and 429 nm, in line with the predictions of DFT calculations. A third absorption predicted by DFT at below 300 nm was not observed due to limitations of the spectrometer.
(§3) The following table gives the position of λmax for the fluorescence emission spectra and the second and third UV/vis Absorptions for a range of Zn[BTSCs]

[5] = Fluorescence emission spectra of zinc bis(thiosemicarbazone) complexes (Zn[BTSCs]); settings: for Fluorescence Emission λmax(2): peak (2), associated with the BTSC backbone; for fluorescence peak associated with the phenyl ring: FIG. 2; for Fluorescence Emission λmax(1): peak (1), associated with the phenyl component
Protocol: as §1
In addition to the fluorescence band around 550 nm the Zn[ATS(R)/P-carb] complexes show a second band with at λma 340 nm. This may be associated with the fluorescence of the terminal benzoic acid group.
Fluorescence emission of Zn[ATS(R)/P-Cart] for excitation with DMSO at 300 nm.
To further investigate the effect of addition of a phenyl group onto zinc [BTSC], complexes differing only by the presence of a phenyl group were compared; see FIG. 2.
The Zn[GT(Et)] peak at 335 nm, is a Raman scattering peak. The Zn[PGTS(Et)] peak at 342 nm and the Zn[GTS(Ph)] peak at 397 nm are due to fluorescence associated with the phenyl ring. These peaks are readily differentiated; true fluorescence emission peaks (λmax,) remain static over a range of excitation wavelengths whereas Raman peaks (λmax) vary, as described by Wayne, R. P., in Principles and Applications of Photochemistry, 1986.
as §3
Fluorescence peak (1) between 340 and 400 nm, associated with the phenyl component and a second, fluorescence peak (2), present in all complexes between 530 and 570 nm, associated with the BTSC backbone. The intensity of fluorescence peak (1) was always less than that of fluorescence peak (2). Fluorescence peak (2) for the all the phenyl complexes appear at longer wavelengths as these have longer delocalised π systems than their alkyl substituted counterparts.

[6] = wavelengths greater than 300 nm

Compound | λmax (nm), (higher wavelength absorption peak, lowest energy transition) [1] [nm] | ε (mol^-1 dm^3 cm^-1) [1] [mol^-1 dm^3 cm^-1] | fluorescence emission λmax /nm [3] [nm] | Relative intensity [3] | λmax (nm) [1, 6] [nm] | other results
CNC1=NN=C(C)C(C)=NN=C(N/N=C/c2ccc(C=O)cc2)[S][Zn][S]1 [Complex 10, Zn[ATSM/A-terephthalaldehyde]] | 468 | 49912 | 584 | 0.23 | – | λmax (nm) [1]: 364 nm; fluorescence intensity in the zinc complex region, versus Zn[ATS(Me)/A-T-Amino-BTAP] [2]: approximately tenfold lower; rank of fluorescence emission curve intensity, FIG. 4 (b) [2]: lowest intensity
CNC1=NN=C(C)C(C)=NN=C(N/N=C/c2c(O)ccc3ccccc23)[S][Zn][S]1 [Complex 6, Zn[ATSM/A-2-hydroxynaphthaldehyde]] | 460 | 62183 | 558 | 2.61 | 334 | λmax (nm) [1]: 379 nm
CCNC1=N[N+]2=CC=[N+]3N=C(NCC)[S][Zn-2]23[S]1 [Zn[GTS(Et)]] | – | – | – | – | – | UV/Vis Absorption λmax(2) [4]: 323 nm; UV/Vis Absorption λmax(3) [4]: 445 nm; Fluorescence Emission λmax(2) [5]: 550 nm
CNC1=NN=C(C)C(C)=NN=C(N/N=C/c2ccco2)[S][Zn][S]1 [Complex 4, Zn[ATSM/A-2-furaldehyde]] | 455 | 36939 | 551 | 1.05 | 340 | –
C1=[N+]2N=C(Nc3ccccc3)[S][Zn-2]23[S]C(Nc2ccccc2)=N[N+]3=C1 [Zn[GTS(Ph)]] | – | – | – | – | – | UV/Vis Absorption λmax(2) [4]: 342 nm; UV/Vis Absorption λmax(3) [4]: 469 nm; fluorescence peak associated with the phenyl ring [5]: 397 nm; Fluorescence Emission λmax(1) [5]: 340 nm; Fluorescence Emission λmax(2) [5]: 575 nm
CNC1=NN=C(C)C(C)=NN=C(N/N=C/c2cccc(/C=N/NC3=NN=C(C)C(C)=NN=C(NC)[S][Zn][S]3)c2)[S][Zn][S]1 [Complex 13, Zn2[ATSM/A-isopthalaldehyde-ZnATSM/A]] | 457 | 79475 | 567 | 2.65 | 339 | increase in fluorescence intensity relative to Zn[ATSM] and Zn[ATSM/A] [3]: almost thirty-fold increase
CNC1=NN=C(C)C(C)=NN=C(N/N=C/c2ccccc2O)[S][Zn][S]1 [Complex 5, Zn[ATSM/A-salicylaldehyde]] | 455 | 51172 | 548 | 0.95 | 346 | –
CNC1=NN=C(C)C(C)=NN=C(N/N=C/c2ccccc2)[S][Zn][S]1 [Complex 3, Zn[ATSM/A-benzaldehyde]] | 451 | 40016 | 553 | 1.00 | 333 | –
CNC([S-])=NN=CC=NN=C([S-])NC.[Zn+2] [Zn[GTS(Me)]] | – | – | – | – | – | UV/Vis Absorption λmax(2) [4]: 334 nm; UV/Vis Absorption λmax(3) [4]: 446 nm; Fluorescence Emission λmax(2) [5]: 550 nm
CCNC1=N[N+]2=CC(c3ccccc3)=[N+]3N=C(NCC)[S][Zn-2]23[S]1 (stereo not drawn) [Zn PGTS(Et), Zn [PGTS(Et)]] | – | – | – | – | – | UV/Vis Absorption λmax(2) [4]: 331 nm; UV/Vis Absorption λmax(3) [4]: 466 nm; fluorescence peak associated with the phenyl ring [5]: 342 nm; Fluorescence Emission λmax(1) [5]: 391 nm; Fluorescence Emission λmax(2) [5]: 567 nm
CNC1=NN=C(C)C(C)=NN=C(N/N=C/C=N/NC2=NN=C(C)C(C)=NN=C(NC)[S][Zn][S]2)[S][Zn][S]1 [Complex 11, Zn2[ATSM/A-glyoxal-ATSM/A]] | 489 | 126450 | 558 | 2.46 | 330 | increase in fluorescence intensity relative to Zn[ATSM] and Zn[ATSM/A] [3]: almost thirty-fold increase
Zn[ATSM] [Complex 1, reference compound] | 429 | 29444 | 534 | 0.09 | 308 | UV/Vis absorptions [4]: 308 nm and 429 nm; Emission λmax [5]: 557 nm; fluorescence strength [3]: comparatively weak fluorescence; Relative intensity (values in parentheses) [3]: 0.35
CNC1=NN=C(C)C(C)=NN=C(N/N=C/C(=O)c2ccccc2)[S][Zn][S]1 [Complex 9, Zn[ATSM/A-phenylglyoxal]] | 474 | 46157 | 605 | 0.19 | 341 | –
CCCN(CCC)c1ccc(/C=N/NC2=NN=C(C)C(C)=NN=C(NC)[S][Zn][S]2)cc1 [Complex 7, Zn[ATSM/A-4-(di-n-propylamino)benzaldehyde]] | 465 | 75127 | 578 | 2.85 | 321 | λmax (nm) [1]: 370 nm
CNC1=NN=C(C)C(C)=NN=C(N/N=C(\C)C(C)=O)[S][Zn][S]1 [Complex 8, Zn[ATSM/A-butane-2,3-dione]] | 455 | 35594 | 561 | 0.33 | 323 | –
CNC1=NN=C(C)C(C)=NN=C(NN)[S][Zn][S]1 [Complex 2, Zn[ATSM/A]] | 429 | 29690 | 548 | 0.10 | 315 | fluorescence intensity in the zinc complex region, versus Zn[ATS(Me)/A-T-Amino-BTAP] [2]: approximately tenfold lower; rank of fluorescence emission curve intensity, FIG. 4 (b) [2]: second highest intensity; fluorescence strength [3]: comparatively weak fluorescence; Relative intensity (values in parentheses) [3]: 0.32

From US8299285B2, “Compounds for imaging and therapy” (Isis Innovation Limited, priority 2005, dated 2012)
